Type in all cases: in vivo, mouse
Experiment [1] has as its system Myelin basic protein (MBP). The experiment in a line: Myelin basic protein in brain tissue homogenate (ELISA), cuprizone/rapamycin demyelination model. As to conditions: compared to the demyelination control, Withaferin A 25 mg/kg, BDMC 12.5 mg/kg, combination 37.5 mg/kg, orally once per day. An excerpt:
(§1) The Eight-week-old male C56BL/6 J mice were selected and randomized into ten animals in each group (Table 1). Demyelination was induced by 0.3% cuprizone in combination with rapamycin (Hilary H S, Kathryn K B, Daniela C P, Priya N, Wendy B M. A New Model of Cuprizone-Mediated Demyelination/Remyelination. Am Society Neurochem. 2014: 1-16). Briefly, groups undergo demyelination by feeding on a diet containing 0.3% cuprizone mixed into Rodent Diet. These mice received additionally intra-peritoneal rapamycin injections 5 days a week with a vehicle solution.
(§2) After 8 weeks of treatment, all cuprizone feedings and all injections of rapamycin was discontinued. The animals were subjected to behavioral analysis and at end of study, brain samples and serum samples were collected for estimation of Molecular and protein biomarkers by ELISA and Immunohistochemistry of brain was assessed for Demyelination/Remyelination.
(§3) Withaferin A or BDMC were administered orally once per day to mouse, for 8 weeks after treatment with Cuprizone and Rapamycin (Table 1). The dose response of BDMC or Withaferin was assessed by measuring concentration of biomarkers, Myelin Oligodendrocyte Glycoprotein (MOG) (FIG. 1) Brain Derived Neurotrophic Factor (BDNF) (FIG. 2), in serum. […]
A general note: ELISA stands for enzyme-linked immunosorbent assay.

The test system of experiment [2] is Platelet Derived Growth Factor Receptor alpha (PDGFRa). The experiment in a line: PDGFRa in brain tissue homogenate (ELISA), cuprizone/rapamycin demyelination model. As to conditions: compared to the demyelination control, Withaferin A 25 mg/kg, BDMC 12.5 mg/kg, combination 37.5 mg/kg, orally once per day.
Excerpt: as §1, §2, §3

In experiment [3] the test system is Chondroitin Sulfate Proteoglycan 4 (NG2). The experiment in a line: NG2 in brain tissue homogenate (ELISA), cuprizone/rapamycin demyelination model. Conditions: compared to the demyelination control, Withaferin A 25 mg/kg, BDMC 12.5 mg/kg, combination 37.5 mg/kg, orally once per day.
Excerpt: as §1, §2, §3

The subject of experiment [4] is Transient receptor potential ankyrin 1 (TRPA1). The experiment can be described thus: TRPA1 in brain tissue homogenate (ELISA), cuprizone/rapamycin demyelination model. Conditions: compared to the demyelination control, Withaferin A 25 mg/kg, BDMC 12.5 mg/kg, combination 37.5 mg/kg, orally once per day.
Excerpt: as §1, §2, §3

The test system of experiment [5] is Amphoterin-induced protein 3 (AMIGO3). The experiment can be described thus: AMIGO3 in brain tissue homogenate (ELISA), cuprizone/rapamycin demyelination model. As to conditions: compared to the demyelination control, Withaferin A 25 mg/kg, BDMC 12.5 mg/kg, combination 37.5 mg/kg, orally once per day.
Excerpt: as §1, §2, §3

A further experiment deals with C-reactive Protein (CRP). The experiment can be described thus: C-reactive protein (ELISA), cuprizone/rapamycin demyelination model. Conditions: compared to the demyelination control, Withaferin A 25 mg/kg, BDMC 12.5 mg/kg, combination 37.5 mg/kg, orally once per day.
Excerpt: as §1, §2, §3

Experiment [6] deals with CXC chemokine receptor 2 (CXCR2). The experiment can be described thus: CXCR2 in brain tissue homogenate (ELISA), cuprizone/rapamycin demyelination model. As to conditions: compared to the demyelination control, Withaferin A 25 mg/kg, BDMC 12.5 mg/kg, combination 37.5 mg/kg, orally once per day.
Excerpt: as §1, §2, §3

In experiment [7] the test system is C56BL/6 J mice. The experiment can be described thus: Motor coordination and learning: Rotarod test in demyelinated mice. Conditions: Rotarod 16 rpm, 60 s, Withaferin A 25 mg/kg, BDMC 12.5 mg/kg, combination 25 + 12.5 mg/kg, demyelinated control 3/10.
Excerpt: as §1, §2
Motor coordination and balance were evaluated in a Rotarod apparatus which consists of a motor-driven rotating rod whose speed can be adjusted. All mice were evaluated on the Rotarod three times a day for two consecutive days, with the rotation set at 15 to 16 revolutions per minute (rpm) (Rozas, G.; Guerra, M. J.; Labandeira Garcia, J. L. An automated Rotarod method for quantitative drug-free evaluation of overall motor deficits in rat models of Parkinsonism. Brain Res. Protoc. 1997, 2, 75-84). To test the performance, the mice were placed on the rotating cylinder at an angle of 45 with an initial rotation speed of 16 rpm, and were allowed to run for 60 s. The trial was repeated after 5-10 min. The falls and flips (when the animal hangs on to the cylinder and continues all the way around) were recorded within 60 s of each trial.
In general terms: The rotarod test checks motor coordination on a turning rod.

The test system of experiment [8] is C56BL/6 J mice. The experiment can be described thus: Grip strength test in demyelinated mice. As to conditions: forelimb strength, compared to the demyelinated control; Withaferin A 25 mg/kg, BDMC 12.5 mg/kg, combination 37.5 mg/kg.
Excerpt: as §1, §2

Experiment [9] concerns C56BL/6 J mice. The experiment can be described thus: Locomotor activity test (Actophotometer) in demyelinated mice. As to conditions: 5 minutes, p.o., Mean ± S.E., 10 animals; for locomotor activity score, 3 hr after treatment: demyelinated control 148 ± 14.48; for locomotor activity score, 2 hr after treatment: demyelinated control 158 ± 14.02; for locomotor activity score, 1 hr after treatment: demyelinated control 170 ± 20.18.
Excerpt: as §1, §2
Actophotometer (Activity cage) is designed to study the spontaneous or induced or locomotor activity in small animals like mice or rats. In this apparatus, the Optical sensors and emitters are present to record the horizontal movements of the animals on a six-digit digital counter display. Each animal was placed in Actophotometer for 5 minutes and basal activity score was recorded for all animals. Each animal was treated with respective drugs and activity score was recorded after 1, 2, and 3 hours.

For experiment [10], the system named is C56BL/6 J mice. The experiment can be described thus: Immunohistochemistry of brain for demyelination/remyelination. As to conditions: GST-π staining; Withaferin A 25 mg/kg, BDMC 12.5 mg/kg, combination 37.5 mg/kg; versus demyelinated control.
Excerpt: as §1, §2

Experiment [11] has as its system Myelin Oligodendrocyte Glycoprotein (MOG), Brain Derived Neurotrophic Factor (BDNF). The experiment can be described thus: Dose response study, MOG and BDNF in serum. As to conditions: orally once per day for 8 weeks; from serum MOG and BDNF dose response.
Excerpt: as §1
Withaferin A or BDMC were administered orally once per day to mouse, for 8 weeks after treatment with Cuprizone and Rapamycin (Table 1). The dose response of BDMC or Withaferin was assessed by measuring concentration of biomarkers, Myelin Oligodendrocyte Glycoprotein (MOG) (FIG. 1) Brain Derived Neurotrophic Factor (BDNF) (FIG. 2), in serum.

The record followed here is US20230201134A1, “COMPOSITIONS FOR THE MANAGEMENT OF DEMYELINATING DISORDERS” (priority 2021, published 2023).

In the case of `CC1=C(CO)C(=O)O[C@@H]([C@@H](C)[C@H]2CC[C@H]3[C@@H]4C[C@H]5O[C@]56[C@@H](O)C=CC(=O)[C@]6(C)[C@H]4CC[C@]23C)C1` [Withaferin A], the “proliferation of Myelin basic protein (MBP)” value in [1] was found to be 64%. In addition, the “upregulation of PDGFRa” value in [2] is given as 22%. Further, the “upregulation of NG2” value in experiment [3] worked out at 30%. Moreover, the “down regulation of TRPA1 inflammatory marker” value in experiment [4] is on record as 43%. Besides, the “down regulation of AMIGO3 inflammatory marker” value in experiment [5] stood at 36%. Further, the “down regulation of C-reactive Protein (CRP) inflammatory marker” value with C-reactive Protein (CRP) was determined as 32%. Moreover, the “down regulation of CXC chemokine receptor 2 (CXCR2) inflammatory marker” value in [6] is listed as 32%. The “No. of mice which stayed on rota rod/total no. of animals” value in the experiment with C56BL/6 J mice [7] was 5 out of 10. In addition, the “No. of mice which stayed on rota rod/total no. of animals” value with C56BL/6 J mice [7] (listed as Withaferin) is reported as 5/10. Further, the “improvement in the grip strength” value in the experiment on C56BL/6 J mice [8] is listed as 25%. For the same compound, in the experiment on C56BL/6 J mice [9], the “locomotor activity score, 3 hr after treatment” value was 200 ± 9.01; the “locomotor activity score, 2 hr after treatment” value was 210 ± 17.23; the “locomotor activity score, 1 hr after treatment” value is reported as 240 ± 17.22. For the same compound, the “immunohistochemistry findings of cerebellar cortical layer” value in the experiment with C56BL/6 J mice [10] was “few degenerated Purkinje cells with pyknotic cell bodies and inconspicuous dendritic processes”. Further, the optimum effective dose in [11] is listed as 25 mg/kg.

With `O=C(/C=C/c1ccc(O)cc1)CC(=O)/C=C/c1ccc(O)cc1` [BDMC, Bisdemethoxycurcumin], the “proliferation of Myelin basic protein (MBP)” value in [1] is on record as 122%. Moreover, the “upregulation of PDGFRa” value in experiment [2] was found to be 73%. Moreover, the “upregulation of NG2” value in experiment [3] was found to be 90%. Moreover, the “down regulation of TRPA1 inflammatory marker” value in experiment [4] came to 17%. For the same compound, the “down regulation of AMIGO3 inflammatory marker” value in [5] is listed as 27%. The “down regulation of C-reactive Protein (CRP) inflammatory marker” value in the experiment on C-reactive Protein (CRP) amounted to 35%. Further, the “down regulation of CXC chemokine receptor 2 (CXCR2) inflammatory marker” value in [6] was determined as 35%. The “No. of mice which stayed on rota rod/total no. of animals” value in the experiment on C56BL/6 J mice [7] is given as 5/10. In addition, in the experiment on C56BL/6 J mice [8], the “improvement in the grip strength” value is recorded as 37.5%. Also, in the experiment with C56BL/6 J mice [9], the “locomotor activity score, 3 hr after treatment” value stood at 190 ± 7.35; the “locomotor activity score, 2 hr after treatment” value stood at 200 ± 10.70; the “locomotor activity score, 1 hr after treatment” value is 220 ± 21.11. The optimum effective dose in experiment [11] is recorded as 12.5 mg/kg.
